Measurements published in patent EP0394553A2, “Use of fluorine containing pyridone carboxylic acid derivatives for preparing a medicament for the treatment of HIV infections” (DAIICHI PHARMACEUTICAL CO., LTD., priority 1989, dated 1990).

Columns and labels:
in vivo = conditions: mouse, iv
HIV (LAV 1) = assay: microbe, parasite or virus in culture
How it was run: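 CEM cells were infected with HIV LAV 1 at MOI 0.05 and cultured with test substance at 10, 5, 2.5 or 1 mcg/ml, with medium exchanged periodically up to 30 days. Viable cell count and percentage were measured by trypan blue, and antigen-positive cells by immunofluorescence with anti-HIV antiserum, at 4–30 days. Values are means of two wells.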

[1] = 1 mcg/ml, 4-day addition, after 4 days
[2] = 1 mcg/ml, 4-day addition, after 7 days
[3] = 1 mcg/ml, 4-day addition, after 10 days
[4] = 1 mcg/ml, 4-day addition, after 30 days
[5] = 1 mcg/ml, continuous addition, after 4 days
[6] = 1 mcg/ml, continuous addition, after 7 days
[7] = 1 mcg/ml, continuous addition, after 10 days
[8] = 1 mcg/ml, continuous addition, after 30 days
[9] = 2.5 mcg/ml, 4-day addition, after 4 days
[10] = 2.5 mcg/ml, 4-day addition, after 7 days
[11] = 2.5 mcg/ml, 4-day addition, after 10 days
[12] = 2.5 mcg/ml, 4-day addition, after 20 days
[13] = 2.5 mcg/ml, 4-day addition, after 30 days
[14] = 2.5 mcg/ml, continuous addition, after 4 days
[15] = 2.5 mcg/ml, continuous addition, after 7 days
[16] = 2.5 mcg/ml, continuous addition, after 10 days
[17] = 2.5 mcg/ml, continuous addition, after 20 days
[18] = 2.5 mcg/ml, continuous addition, after 30 days
[19] = 5 mcg/ml, 4-day addition, after 4 days
[20] = 5 mcg/ml, 4-day addition, after 7 days
[21] = 5 mcg/ml, 4-day addition, after 10 days
[22] = 5 mcg/ml, 4-day addition, after 20 days
[23] = 5 mcg/ml, 4-day addition, after 30 days
[24] = 5 mcg/ml, continuous addition, after 4 days
[25] = 5 mcg/ml, continuous addition, after 7 days
[26] = 5 mcg/ml, continuous addition, after 10 days
[27] = 5 mcg/ml, continuous addition, after 20 days
[28] = 5 mcg/ml, continuous addition, after 30 days

For `C[C@H]1COc2c(N3CCN(C)CC3)c(F)cc3c(=O)c(C(=O)O)cn1c23` [DR-3355, (-)-(S)-9-fluoro-2,3-dihydro-3-methyl-10-(4-methyl-1-piperazinyl)-7-oxo-7H-pyrido[1,2,3-de][1,4]benzoxazine-6-carboxylic acid hemihydrate], the LD50 (in vivo) was no less than 200 mg/kg, the Viable cell count (HIV (LAV 1); [1]) was 220 × 10⁴ cells/ml and the “Viral antigen-positive cell percentage” value (HIV (LAV 1); [1]) was 91%. For the same compound, the Viable cell count (HIV (LAV 1); [2]) was 71 × 10⁴ cells/ml, the “Viral antigen-positive cell percentage” value (HIV (LAV 1); [2]) was 61% and the Viable cell count (HIV (LAV 1); [3]) was 54 × 10⁴ cells/ml. For the same compound, the “Viral antigen-positive cell percentage” value (HIV (LAV 1); [3]) was 56%, the Viable cell count (HIV (LAV 1); 1 mcg/ml, 4-day addition, after 20 days) was 3 × 10⁴ cells/ml and the Viable cell count (HIV (LAV 1); [4]) was 68 × 10⁴ cells/ml. For the same compound, the “Viral antigen-positive cell percentage” value (HIV (LAV 1); [4]) was 16%, the Viable cell count (HIV (LAV 1); [5]) was 190 × 10⁴ cells/ml and the “Viral antigen-positive cell percentage” value (HIV (LAV 1); [5]) was 88%. For the same compound, the Viable cell count (HIV (LAV 1); [6]) was 65 × 10⁴ cells/ml, the “Viral antigen-positive cell percentage” value (HIV (LAV 1); [6]) was 52% and the Viable cell count (HIV (LAV 1); [7]) was 110 × 10⁴ cells/ml. The “Viral antigen-positive cell percentage” value (HIV (LAV 1); [7]) was 43%, the Viable cell count (HIV (LAV 1); 1 mcg/ml, continuous addition, after 20 days) was 11 × 10⁴ cells/ml and the Viable cell count (HIV (LAV 1); [8]) was 360 × 10⁴ cells/ml. The “Viral antigen-positive cell percentage” value (HIV (LAV 1); [8]) was 15%, the Viable cell count (HIV (LAV 1); [9]) was 190 × 10⁴ cells/ml and the “Viral antigen-positive cell percentage” value (HIV (LAV 1); [9]) was 88%. For the same compound, the Viable cell count (HIV (LAV 1); [10]) was 76 × 10⁴ cells/ml, the “Viral antigen-positive cell percentage” value (HIV (LAV 1); [10]) was 53% and the Viable cell count (HIV (LAV 1); [11]) was 280 × 10⁴ cells/ml. The “Viral antigen-positive cell percentage” value (HIV (LAV 1); [11]) was 44%, the Viable cell count (HIV (LAV 1); [12]) was 230 × 10⁴ cells/ml and the “Viral antigen-positive cell percentage” value (HIV (LAV 1); [12]) was 30%. For the same compound, the Viable cell count (HIV (LAV 1); [13]) was 130 × 10⁴ cells/ml, the “Viral antigen-positive cell percentage” value (HIV (LAV 1); [13]) was 10% and the Viable cell count (HIV (LAV 1); [14]) was 210 × 10⁴ cells/ml. For the same compound, the “Viral antigen-positive cell percentage” value (HIV (LAV 1); [14]) was 87%, the Viable cell count (HIV (LAV 1); [15]) was 53 × 10⁴ cells/ml and the “Viral antigen-positive cell percentage” value (HIV (LAV 1); [15]) was 51%. The Viable cell count (HIV (LAV 1); [16]) was 290 × 10⁴ cells/ml, the “Viral antigen-positive cell percentage” value (HIV (LAV 1); [16]) was 25% and the Viable cell count (HIV (LAV 1); [17]) was 390 × 10⁴ cells/ml. For the same compound, the “Viral antigen-positive cell percentage” value (HIV (LAV 1); [17]) was 35%, the Viable cell count (HIV (LAV 1); [18]) was 270 × 10⁴ cells/ml and the “Viral antigen-positive cell percentage” value (HIV (LAV 1); [18]) was 11%. The Viable cell count (HIV (LAV 1); [19]) was 190 × 10⁴ cells/ml, the “Viral antigen-positive cell percentage” value (HIV (LAV 1); [19]) was 90% and the Viable cell count (HIV (LAV 1); [20]) was 78 × 10⁴ cells/ml. The “Viral antigen-positive cell percentage” value (HIV (LAV 1); [20]) was 59%, the Viable cell count (HIV (LAV 1); [21]) was 320 × 10⁴ cells/ml and the “Viral antigen-positive cell percentage” value (HIV (LAV 1); [21]) was 33%. The Viable cell count (HIV (LAV 1); [22]) was 190 × 10⁴ cells/ml, the “Viral antigen-positive cell percentage” value (HIV (LAV 1); [22]) was 36% and the Viable cell count (HIV (LAV 1); [23]) was 360 × 10⁴ cells/ml. For the same compound, the “Viral antigen-positive cell percentage” value (HIV (LAV 1); [23]) was 2%, the Viable cell count (HIV (LAV 1); [24]) was 160 × 10⁴ cells/ml and the “Viral antigen-positive cell percentage” value (HIV (LAV 1); [24]) was 87%. For the same compound, the Viable cell count (HIV (LAV 1); [25]) was 51 × 10⁴ cells/ml, the “Viral antigen-positive cell percentage” value (HIV (LAV 1); [25]) was 53% and the Viable cell count (HIV (LAV 1); [26]) was 260 × 10⁴ cells/ml. For the same compound, the “Viral antigen-positive cell percentage” value (HIV (LAV 1); [26]) was 37%, the Viable cell count (HIV (LAV 1); [27]) was 320 × 10⁴ cells/ml and the “Viral antigen-positive cell percentage” value (HIV (LAV 1); [27]) was 29%. For the same compound, the Viable cell count (HIV (LAV 1); [28]) was 210 × 10⁴ cells/ml and the “Viral antigen-positive cell percentage” value (HIV (LAV 1); [28]) was 4%.
